# Test results from patent publication US12304898B2, “Quinolyl-containing compound and pharmaceutical composition, and use thereof” (PrimeGene (Beijing) Co., Ltd., priority 2019, dated 2025).
# Biological target: HDAC6 (Homo sapiens (Human), UniProt Q9UBN7)
# Assay: HDAC6 fluorescence analysis, inhibition of HDAC6 activity
# Assay type: biochemical
# Conditions: HDAC6 0.3 nM solution, substrate 15 μM, fluorescence readout; read-out: IC50, inhibitory effect on HDAC6
# Procedure: HDAC6 fluorescence analysis method was used to detect the inhibitory effect of the compounds on the activity of HDAC6. The specific operation is as follows:
# Prepare a 10 mM stock solution of a compound with DMSO. Take 10 μl of stock solution and dilute with 90 μl DMSO to become a 1 mM working solution. […] Add 3 μl of each concentration to 197 μl reaction buffer (20 mM Hepes pH 8.0, 137 mM NaCl, 2.7 mM KCl, 1 mM MgCl2, 0.05% BSA, 0.5 mM TCEP), mix well and add 10 μl to a 384-well plate. In the final reaction system, the concentrations of the compound were 10 μM to 0.51 nM. Duplicate, and add 10 μl 3XHDAC solution (BPS, Cat. 50006, 0.3 nM) to each well, followed by incubating at 23° C. for 20 minutes. Then, add 3× substrate solution (Anaspec, Cat. 61855, 15 μM), centrifuge to mix, and incubate at 23° C. for 90 minutes. Add 30 μl trypsin/SAHA mixture (20 mM Hepes pH 8.0, 100 mM NaCl, 10 mM SAHA, 0.01 mg/ml trypsin), incubate at 23° C. for 60 minutes to terminate the reaction. Finally, read fluorescence data by Envision (390 nm excitation, 460 nm emission). […] Finally, analyze the data by XLfit5 software and calculate the IC50 value of the compound. Vorinostat (SAHA) was a positive reference compound.
# HDAC6, sequence (Q9UBN7 whole entry): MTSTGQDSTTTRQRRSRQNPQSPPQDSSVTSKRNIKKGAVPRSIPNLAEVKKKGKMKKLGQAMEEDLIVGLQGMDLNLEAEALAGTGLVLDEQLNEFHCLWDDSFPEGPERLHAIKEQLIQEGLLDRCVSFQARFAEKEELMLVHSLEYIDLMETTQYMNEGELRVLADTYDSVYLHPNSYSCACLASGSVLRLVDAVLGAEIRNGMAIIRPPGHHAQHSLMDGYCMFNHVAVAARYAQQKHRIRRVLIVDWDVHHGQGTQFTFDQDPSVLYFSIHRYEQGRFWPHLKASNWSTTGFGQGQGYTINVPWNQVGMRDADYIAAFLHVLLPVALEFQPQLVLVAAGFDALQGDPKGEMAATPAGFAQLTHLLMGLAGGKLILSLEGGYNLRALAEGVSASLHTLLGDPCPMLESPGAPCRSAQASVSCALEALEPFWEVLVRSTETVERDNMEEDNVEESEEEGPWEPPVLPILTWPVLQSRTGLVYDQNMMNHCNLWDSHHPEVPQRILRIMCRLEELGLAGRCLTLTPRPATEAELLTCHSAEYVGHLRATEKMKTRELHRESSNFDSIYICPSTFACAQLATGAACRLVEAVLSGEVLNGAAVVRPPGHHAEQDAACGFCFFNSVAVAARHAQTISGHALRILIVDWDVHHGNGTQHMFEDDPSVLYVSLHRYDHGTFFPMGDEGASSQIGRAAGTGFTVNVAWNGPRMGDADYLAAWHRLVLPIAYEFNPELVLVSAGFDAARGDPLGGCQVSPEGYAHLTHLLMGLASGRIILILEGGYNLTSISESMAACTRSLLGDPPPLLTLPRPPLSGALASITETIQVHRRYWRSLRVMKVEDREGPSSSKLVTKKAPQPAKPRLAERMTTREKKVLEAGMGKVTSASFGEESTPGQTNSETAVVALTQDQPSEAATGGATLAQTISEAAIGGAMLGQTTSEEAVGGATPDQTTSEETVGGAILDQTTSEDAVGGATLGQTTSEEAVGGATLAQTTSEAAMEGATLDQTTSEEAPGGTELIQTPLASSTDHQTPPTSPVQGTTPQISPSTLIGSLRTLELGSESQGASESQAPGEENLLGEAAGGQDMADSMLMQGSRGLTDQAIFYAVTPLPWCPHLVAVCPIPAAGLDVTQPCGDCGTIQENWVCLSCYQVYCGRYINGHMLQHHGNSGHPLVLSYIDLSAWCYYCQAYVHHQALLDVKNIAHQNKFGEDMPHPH
row,IC50 [µM],Structure (SMILES)
1,> 10,"COc1cc2nccc(Oc3ccc(NC(=O)C4(C(=O)Nc5ccc(F)cc5)CC4)cc3)c2cc1OC [Cabozantinib, reference compound]"
2,0.0678,"COc1cc2c(Oc3ccc(NC(=O)C4(C(=O)Nc5ccc(F)cc5)CC4)cc3F)ccnc2cc1OCCCCCCCSC(C)=O [Example 12, S-(7-((4-(2-fluoro-4-(1-((4-fluorophenyl)aminoformyl)cyclopropane-1-carboxamido)phenoxy)-6-methoxyquinolin-7-yl)oxy)heptyl)-acetylthioester]"
3,0.018,"COc1cc2c(Oc3ccc(NC(=O)C4(C(=O)Nc5ccc(F)cc5)CC4)cc3F)ccnc2cc1OCCCCCCCS [Example 13, N-(3-fluoro-4-((7-(7-mercaptoheptyloxy)-6-methoxyquinolin-4-yl)oxy)phenyl)-N-(4-fluorophenyl) cyclopropane-1,1-diformamide]"
4,0.0348,"COc1cc2c(Oc3ccc(NC(=O)C4(C(=O)Nc5ccc(F)cc5)CC4)cc3F)ccnc2cc1OC/C=C/CCCCS [Example 25, (E)-N-(3-fluoro-4-((7-((7-mercaptoheptyl-2-en-1-yl)oxy)-6-methoxyquinolin-4-yl)oxy)phenyl)-N-(4-fluorophenyl)cyclopropane-1,1-diformamide]"

# Test system: not listed separately
# Assay: Pharmacokinetic experiment in rats after intragastric administration
# Assay type: in vivo
# Conditions: rat, po, female SD rats, 10 mg/kg, plasma
# Procedure: The female SD rats were divided into groups, 3 rats in each group, and the example compounds 10, 12, 24, 57, 61, 89, 90, 93, 94, 96 (10 mg/kg) were administered by intragastric administration. Fasting overnight before administration, and the fasting time was from 10 hours before administration to 4 hours after administration. Blood was collected at 0.25, 0.5, 1, 2, 4, 8 and 24 hours after administration. Small animal anesthesia machine was used for isoflurane anesthesia. After that, 0.3 mL of whole blood was collected from the fundus venous plexus and placed in a heparin anticoagulation tube. The sample was centrifuged at 4° C., 4000 rpm, for 5 minutes, and the plasma was transferred to a centrifuge tube, and stored at −80° C. until analysis. The plasma sample was extracted by protein precipitation method, and the extract was processed and analyzed by LC/MS/MS.
Structure (SMILES),AUC(0-inf) [ng·h/mL],Cmax [ng/mL],Tmax [h],half-life [h]
"COc1cc2c(Oc3ccc(NC(=O)C4(C(=O)Nc5ccc(F)cc5)CC4)cc3F)ccnc2cc1OCCCCCCSC(C)=O [Example 10, S-(6-((4-(2-fluoro-4-(1-((4-fluorophenyl)aminoformyl)cyclopropane-1-carboxamido)phenoxy)-6-methoxyquinolin-7-yl)oxy)hexyl)-acetylthioester]",468,377,0.833,1.24
"COc1cc2c(Oc3ccc(NC(=O)C4(C(=O)Nc5ccc(F)cc5)CC4)cc3F)ccnc2cc1OCCCCCCCSC(C)=O [Example 12, S-(7-((4-(2-fluoro-4-(1-((4-fluorophenyl)aminoformyl)cyclopropane-1-carboxamido)phenoxy)-6-methoxyquinolin-7-yl)oxy)heptyl)-acetylthioester]",1870,946,1,3
"COc1cc2c(Oc3ccc(NC(=O)C4(C(=O)Nc5ccc(F)cc5)CC4)cc3F)ccnc2cc1OC/C=C/CCCCSC(C)=O [Example 24, (E)-S-(7-((4-(2-fluoro-4-(1-((4-fluorophenyl)aminoformyl)cyclopropane-1-carbamoyl)phenoxy)-6-methoxyquinolin-7-yl)oxy)heptyl-5-en-1-yl)acetylthio ester]",1070,430,1.33,6.69

# Second part, the compound after the results:
AUC(0-inf) [ng·h/mL],Cmax [ng/mL],Tmax [h],half-life [h],Structure (SMILES)
2790,1590,0.33,6.42,"COc1cc2c(Oc3ccc(NC(=O)C4(C(=O)Nc5ccc(F)cc5)CC4)cc3F)ccnc2cc1OCCCCCNC(=O)CSC(C)=O [Example 57, S-(2-((5-((4-(2-fluoro-4-(1-((4-fluorophenyl)carbamoyl)cyclopropane-1-carboxamido)phenoxy)-6-methoxyquinolin-7-yl)oxy)pentyl)amino)-2-oxo-ethyl)thioacetate]"
175,121,0.5,1.84,COc1cc2c(Oc3ccc(NC(=O)C4(C(=O)Nc5ccc(F)cc5)CC4)cc3F)ccnc2cc1OCCCCNC(=O)CSC(C)=O [Example 61]
1650,1000,0.833,5.94,"COc1cc2c(Oc3ccc(NC(=O)C4(C(=O)Nc5ccc(F)cc5)CC4)cc3F)ccnc2cc1OCCCCCNC(=O)CSC(=O)C(C)(C)C [Example 89, S-(2-((5-((4-(2-fluoro-4-(1-((4-fluorophenyl)carbamoyl)cyclopropane-1-carboxamido)phenoxy)-6-methoxyquinolin-7-yl)oxo)phenyl)amino)-2-oxo-ethyl)2,2-dimethylthiopropionate]"
689,852,0.333,4.25,CCCCCCCC(=O)SCC(=O)NCCCCCOc1cc2nccc(Oc3ccc(NC(=O)C4(C(=O)Nc5ccc(F)cc5)CC4)cc3F)c2cc1OC [Example 90]
790,429,0.667,5.49,"COc1cc2c(Oc3ccc(NC(=O)C4(C(=O)Nc5ccc(F)cc5)CC4)cc3F)ccnc2cc1OCCCCCNC(=O)CSC(=O)[C@H](N)Cc1cn(C)c2ccccc12 [Example 93, S-(2-((5-((4-(2-fluoro-4-(1-((4-fluorophenyl)carbamoyl)cyclopropane-1-carboxamido)phenoxy)-6-methoxyquinolin-7-yl)oxy)pentyl)amino)-2-oxo-ethyl)-(R)-2-amino-3-(1-methyl-1H-indol-3-yl)thiopropionate benzenesulfonate]"
499,289,0.5,6.14,"COc1cc2c(Oc3ccc(NC(=O)C4(C(=O)Nc5ccc(F)cc5)CC4)cc3F)ccnc2cc1OCCCCCNC(=O)CSC(=O)[C@@H](Cc1cn(C)c2ccccc12)NC(C)=O [Example 94, S-(2-((5-((4-(2-Fluoro-4-(1-((4-fluorophenyl)carbamoyl)cyclopropane-1-carboxamido)phenoxy)-6-methoxyquinolin-7-yl)oxy)pentyl)amino)-2-oxo-ethyl)-(R)-2-acetylamino-3-(1-methyl-1H-indol-3-yl)thiopropionate]"
1040,724,0.417,6.92,"COc1cc2c(Oc3ccc(NC(=O)C4(C(=O)Nc5ccc(F)cc5)CC4)cc3F)ccnc2cc1OCCCCCNC(=O)CSSC [Example 96, N-(3-fluoro-4-((6-methoxy-7-((5-(2-(methyldisulfanyl)acetylamino)pentyl)oxy)quinolin-4-yl)oxy)phenyl)-N-(4-fluorophenyl)cyclopropyl-1,1-diformamide]"

# Biological target: VEGFR2 (KDR) (Homo sapiens (Human), UniProt P35968)
# Sequence (P35968 790-1356): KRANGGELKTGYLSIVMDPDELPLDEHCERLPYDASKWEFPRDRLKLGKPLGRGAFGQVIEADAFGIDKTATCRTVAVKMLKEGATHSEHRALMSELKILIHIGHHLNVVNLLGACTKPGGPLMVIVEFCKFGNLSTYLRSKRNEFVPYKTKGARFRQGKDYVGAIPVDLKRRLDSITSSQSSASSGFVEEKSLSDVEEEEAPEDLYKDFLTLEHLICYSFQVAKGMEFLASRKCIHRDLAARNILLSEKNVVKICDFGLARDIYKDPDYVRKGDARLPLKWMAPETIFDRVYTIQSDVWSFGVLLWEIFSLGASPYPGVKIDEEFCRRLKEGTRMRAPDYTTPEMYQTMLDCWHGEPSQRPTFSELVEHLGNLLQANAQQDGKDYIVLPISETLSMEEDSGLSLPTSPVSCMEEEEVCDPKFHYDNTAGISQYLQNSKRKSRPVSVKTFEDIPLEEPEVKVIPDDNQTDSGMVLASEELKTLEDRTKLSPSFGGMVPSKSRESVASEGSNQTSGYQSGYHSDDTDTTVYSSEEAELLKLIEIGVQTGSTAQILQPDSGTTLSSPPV
# Assay: VEGFR2 (KDR) mobility shift assay
# Assay type: biochemical
# Conditions: VEGFR2 0.5 nM, ATP 95 μM, read-out: IC50, inhibitory effect on kinase VEGFR2
# Procedure: Detect compounds on VEGFR2 (KDR) by mobility shift assay. The initial test concentration of a compound was 1000 nM, 3 times dilution, 10 concentrations, and detection in duplicate. Nintedanib (Selleckchem, Cat. S1010) was used as the positive control compound. The operation method was briefly described as follows: kinase VEGFR2 (Carna, Cat. 08-191) at the final concentration of 0.5 nM and the test compound were mixed in the Optiplate-384F well plate and incubated for 10 minutes at room temperature. Then, ATP at a final concentration of 95 μM and 3 μM Kinase substrate 22 (Gill Biochemical (glbiochem), Cat. 112393) were added. After mixing, react at room temperature for 30 minutes. Add stop detection solution to terminate the reaction and read the conversion rate with Caliper EZ ReaderlI.
# Wherein, Conversion %_sample refers to the conversion rate reading of the sample; Conversion %_min: the average value of the negative control wells, which represents the conversion rate readings of the wells without enzyme activity; Conversion %_max: the average value of the positive control wells, represents the conversion rate readings of the wells without compound inhibition.
# Fitting the dose-response curve: Take the log of the concentration as the X-axis, and the percentage of inhibition rate as the Y-axis. The dose response curve was fitted by the analysis software GraphPad Prism 5 with log(inhibitor) vs. response—Variable slope to obtain the inhibitory activity (IC50) of each compound.
row,Structure (SMILES),IC50 [µM]
1,"COc1cc2c(Oc3ccc(NC(=O)C4(C(=O)Nc5ccc(F)cc5)CC4)cc3F)ccnc2cc1OCCCCSC(C)=O [Example 6, S-(4-((4-(2-Fluoro-4-(1-((4-fluorophenyl)aminoformyl)cyclopropane-1-carboxamido)phenoxy)-6-methoxyquinolin-7-yl)oxy)butyl)-acetylthioester]",0.079
2,"COc1cc2c(Oc3ccc(NC(=O)C4(C(=O)Nc5ccc(F)cc5)CC4)cc3F)ccnc2cc1OCCCCS [Example 7, N-(3-fluoro-4-((7-(4-mercaptobutoxy)-6-methoxyquinolin-4-yl)oxy)phenyl)-N-(4-fluorophenyl) cyclopropane-1,1-diformamide]",0.057
3,"COc1cc2c(Oc3ccc(NC(=O)C4(C(=O)Nc5ccc(F)cc5)CC4)cc3F)ccnc2cc1OC/C=C/CCCCS [Example 25, (E)-N-(3-fluoro-4-((7-((7-mercaptoheptyl-2-en-1-yl)oxy)-6-methoxyquinolin-4-yl)oxy)phenyl)-N-(4-fluorophenyl)cyclopropane-1,1-diformamide]",0.079
4,"COc1cc2c(Oc3ccc(NC(=O)C4(C(=O)Nc5ccc(F)cc5)CC4)cc3F)ccnc2cc1OC/C=C/CCCS [Example 27, (E)-N-(3-fluoro-4-((7-((6-mercaptohexyl-2-en-1-yl)oxy)-6-methoxyquinolin-4-yl)oxy)phenyl)-N-(4-fluorophenyl)cyclopropane-1,1-dimethylamid]",0.033
5,"COc1cc2c(Oc3ccc(NC(=O)C4(C(=O)Nc5ccc(F)cc5)CC4)cc3F)ccnc2cc1OCCCSc1nnc(S)s1 [Example 54, N-(3-fluoro-4-((7-(3-((5-thio-1,3,4-trithiazol-2-yl)sulfanyl)propoxy)-6-methoxyquinolin-4-yl)oxy)phenyl)-N-(4-fluorophenyl)cyclopropane-1,1-diformamide]",0.054

# More lines, now with the values ahead:
row,IC50 [µM],Structure (SMILES)
1,0.03,COc1cc2c(Oc3ccc(NC(=O)C4(C(=O)Nc5ccc(F)cc5)CC4)cc3F)ccnc2cc1OCCNC(=O)NCCSC(C)=O [Example 55]
2,0.013,COc1cc2c(Oc3ccc(NC(=O)C4(C(=O)Nc5ccc(F)cc5)CC4)cc3)ccnc2cc1OCCCCCNC(=O)CSC(C)=O [Example 65]
3,0.0026,"CC(=O)SCCCCCCOc1cc2nccc(Oc3ccc(NC(=O)NC4CC4)c(Cl)c3)c2cc1C(N)=O [Example 86, S-(7-((6-carbamoyl-4-(3-chloro-4-(3-cyclopropylurea)phenoxy)quinolin-7-yl)oxy)hexyl)thioacetate]"
